We go through nine compounds from article PMC12769565, “Design, synthesis and biological activity of glycoconjugated ADAMTS5 exosite inhibitors: applications in osteoarthritis and ovarian cancer models” (Scientific Reports, 2025).

The subject of data set [1] is ADAMTS5. The following applies: reported zinc-chelating inhibitors; cited from earlier work.
The subject of data set [2] is HEK293. Set-up: method as in ChEMBL. Particulars: ref ChEMBL, cited from earlier work; for EC50: read-out: EC50 (Standard Value).
The test system of data set [3] is human non-OA chondrocytes. The experiment in a line: Cell viability MTS assay. In kind it is cell-based. Particulars: 100 µM; 72 h; vs DMSO control. On the procedure: Non-OA human chondrocytes were isolated from knee cartilage tissues obtained from the Stanmore BioBank, Institute of Orthopaedics, Royal National Orthopaedic Hospital, Stanmore, UK, from 3 donors following informed consent and approval by the Royal Veterinary College Ethics and Welfare Committee (Institutional approval URN 2012 0048 H) as before.
(§1) Cell viability was assessed using CellTiter® 96 Aqueous One Solution Cell Proliferation Assay (Promega, G3582) following the manufacturer’s protocol. The assay is based on the reduction of [3-(4,5-dimethylthiazol-2-yl)-5-(3-carboxymethoxyphenyl)-2-(4-sulfophenyl)-2 H-tetrazolium] (MTS) and phenazine ethosulfate into formazan. Compounds 2 and 4b, GM6001 (Merck, 364206) (10–100 µM), or DMSO control were incubated in 48-well Nunc™ plates (Thermo Fisher Scientific,150687) with HEK293T cells, human non-OA chondrocytes, porcine cartilage explants, or human OA cartilage explants for 72 h. At least 3 independent experiments were carried out with 3 technical replicates each. For experiments involving human samples, independent experiments were carried out on 3 different donors. Absorbance at 490 nm was measured on a SpectraMax i3x Multi-Mode Platform (Molecular Devices). Cell viability was normalized to DMSO controls.
(Formazan colour is commonly taken as a measure of viable cells.)

The test system of data set [4] is porcine cartilage explants. As to the kind of experiment: Cell viability MTS assay. In kind it is cell-based, pig. Particulars: 100 µM; 72 h; vs DMSO control. On the procedure: Porcine articular cartilage from the joints of 3–9 month old pigs was supplied by a local abattoir within 2 h of slaughter and dissected into small pieces approximately 3 mm long and 3–4 mm wide. Each piece weighed roughly 10 mg. After dissection, the cartilage was allowed to acclimatize for 24 h at 37 °C under 5% CO2 in Dulbecco’s Modified Eagle Medium (DMEM) containing 100 U/ml penicillin, 100 µg/ml streptomycin, 10% fetal bovine serum (FBS).
as §1

The test system of data set [5] is HEK293T cells. As to the kind of experiment: Cell viability MTS assay. The format is cell-based, human. The following applies: 100 µM; 72 h; vs DMSO control. On the procedure:
as §1

The target in data set [6] is T1, ADAMTS4 (Homo sapiens, UniProt O75173).
T1 construct: Human recombinant full-length FLAG-tagged ADAMTS4 and ADAMTS5 were expressed in HEK293T cells; FLAG; made in house; host or cells: HEK293T cells
T1 sequence (O75173 213-837): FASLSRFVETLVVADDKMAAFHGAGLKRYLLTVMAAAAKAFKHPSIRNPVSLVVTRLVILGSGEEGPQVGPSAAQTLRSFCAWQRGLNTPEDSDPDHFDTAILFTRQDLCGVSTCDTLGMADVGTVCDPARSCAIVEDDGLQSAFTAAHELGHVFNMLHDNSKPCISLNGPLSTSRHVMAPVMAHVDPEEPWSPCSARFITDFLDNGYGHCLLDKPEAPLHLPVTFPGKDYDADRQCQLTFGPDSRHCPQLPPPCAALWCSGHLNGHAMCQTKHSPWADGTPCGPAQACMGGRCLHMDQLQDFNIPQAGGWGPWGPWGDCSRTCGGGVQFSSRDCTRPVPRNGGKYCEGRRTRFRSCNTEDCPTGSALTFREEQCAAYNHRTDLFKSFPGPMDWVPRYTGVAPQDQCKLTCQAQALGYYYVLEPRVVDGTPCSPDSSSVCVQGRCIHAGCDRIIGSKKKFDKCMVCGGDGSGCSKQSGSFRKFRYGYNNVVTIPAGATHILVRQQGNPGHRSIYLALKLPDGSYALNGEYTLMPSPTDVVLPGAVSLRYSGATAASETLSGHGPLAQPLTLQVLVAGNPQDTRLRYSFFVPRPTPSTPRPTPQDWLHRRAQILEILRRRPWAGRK
As to the kind of experiment: QF peptide cleavage assay (peptidolytic activity). The following applies: compared to DMSO control. In kind it is biochemical. On the procedure:
(§2) Human recombinant full-length FLAG-tagged ADAMTS4 and ADAMTS5 were expressed in HEK293T cells (Thermo Fisher Scientific) and purified by anti-FLAG immunoaffinity chromatography as before. Concentrations of active proteases were determined by active-site titrations with known concentrations of TIMP-3 (Bio-Techne, 973-TM-010), using QF peptides as substrates. V1-5GAG, a truncated version of versican V1 isoform comprising residues 21–694 and containing a C-terminal 6x His tag[67], was expressed in HE293T cells and purified by immobilized metal affinity chromatography as before.
QF peptide cleavage assays were conducted in TNC-B (50 mM Tris–HCl, pH 7.5, 150 mM NaCl, 10 mM CaCl2, and 0.02% NaN3) on a SpectraMax i3x Multi-Mode Platform (Molecular Devices, UK) in a total volume of 20 µl at 37℃ as before. ADAMTS4 (3.5 nM) or ADAMTS5 (4 nM) were incubated with compounds 1–4 (100 µM, diluted in TNC-B from 10 mM DMSO stocks) or DMSO for 1 h at 37 ℃ before addition of QF peptides fluorescein-5(6)-carbonyl-[…]N, N,N0,N0-tetramethyl-6-carboxyrhodamine, and fluorescein-5(6)-carbonyl-Thr-Glu-Ser-Glu - […]N, N,N0,N0-tetramethyl-6-carboxyrhodamine, respectively, each at 40 µM. Fluorescence intensity was recorded with an excitation wavelength of 485 nm and an emission wavelength of 535 nm every min for 2 h, expressed as relative fluorescence units and normalized against a blank containing only buffer and substrate. Fluorescence values were converted into residual activity by fixing as 100% the activity of the reactions containing an equal concentration (v/v) of DMSO instead of compound (DMSO control).

In data set [7] the target is T1, ADAMTS4. The experiment in a line: Versicanase assay (V1-5GAG, versikine sandwich ELISA). In kind it is biochemical. The following applies: compared to DMSO control. On the procedure: as §2
Compounds 1–4 (100 µM) or DMSO were incubated with ADAMTS4 (5 nM) or ADAMTS5 (0.4 nM) for 2 h at 37 °C, before addition of V1-5GAG (50 nM). At each time point, reactions were stopped by addition of ethylenediaminetetraacetic acid and ADAMTS-generated versican fragments (versikine) quantified by sandwich ELISA as before[29],[30],[38] using anti-DPEAAE neoepitope antibody (Life Technologies, PA1-1748 A, 5 µg/ml) and polyclonal anti-versican antibody (Abcam, ab171887, 3 µg/ml). For each reaction, the amount of versikine generated was derived from a standard curve (0–1.56 nM) of V1-5GAG completely digested with ADAMTS5. Initial velocities were calculated from the concentration of versikine generated as a function of reaction time. Percent of inhibition was calculated from the DMSO control reactions. IC50 values were determined using the formula: vi/v0 = 1/(1 + [I]/IC50) where vi is the initial velocity of substrate cleavage in the presence of the inhibitor at concentration [I] and v0 is the initial velocity in the presence of an equal concentration (v/v) of DMSO.
(In general: ELISA stands for enzyme-linked immunosorbent assay.)

`CC1C(NS(=O)(=O)N2CCc3c(nc4cc(F)ccn34)C2)(C(=O)O)C1(C)c1ccccc1` (centres unmarked) [A]: the IC50 (commonly the concentration at which inhibition is half-maximal) in data set [1] is 8.4 nM.
Consider `C[C@H]1CN(C(=O)CC[C@@]2(C3CC3)NC(=O)NC2=O)CCN1c1cc(F)cc(F)c1` [B, GLPG 1972], for which the IC50 in data set [1] was 19 nM.
Regarding `COc1cc(/C=C/C(=O)CC(=O)/C=C/c2ccc(O)c(O)c2)ccc1O` [CHEMBL103410], the EC50 (commonly the concentration giving half of the maximal effect) in data set [2] was 36 µM.
Turning to `O=C(/C=C/c1ccccc1)c1ccc(O)cc1O` [CHEMBL105310], in data set [2] (read-out: IC50 (Standard Value)), the IC50 is 109 µM.
On to `O=C(/C=C/c1ccc(O)cc1)CC(=O)/C=C/c1ccc(O)cc1` [CHEMBL105350], for which, in data set [2], the EC50 is 200 µM.
As to `C=CCCNc1nc(NCc2csc(-c3cccs3)n2)nc(N2CCC[C@@H]2CNS(=O)(=O)c2ccc(CCC)cc2)n1` [C], the 50% inhibitory concentration (IC50) in data set [1] was 30 nM.
Regarding `CNC(=O)[C@H](Cc1c[nH]c2ccccc12)NC(=O)[C@@H](CC(=O)NO)CC(C)C` [GM6001, reference compound], the “inhibition of cell viability” value in data set [3] is “No significant effect”; in data set [5], “Neither 2, nor the broad-spectrum zinc-chelating metalloproteinase inhibitor GM6001[40] had an effect on cell viability”. Besides, in data set [4], the “decrease of cell viability” value was “did not exhibit cytotoxicity”.
With `CCC(C)N(Cc1cn(CCCCCCO[C@@H]2O[C@H](CO)[C@@H](O)[C@H](O)[C@H]2NC(C)=O)nn1)S(=O)(=O)c1ccc(-c2ccccc2)cc1` (stereo partly drawn) [compound 1, N-((2R,3R,4R,5 S,6R)-2-((6-(4-((N-(sec-butyl)-[1,1’-biphenyl]-4-sulfonamido)methyl)-1H-1,2,3-triazol-1-yl)hexyl)oxy)-4,5-dihydroxy-6-(hydroxymethyl)tetrahydro-2 H-pyran-3-yl)acetamide], the inhibition (commonly the drop in the measured response relative to a control, in per cent) at 100 µM in data set [6] stood at 42%.
Take `CCC(C)N(Cc1cn(CCCO[C@@H]2O[C@H](CO[C@@H]3O[C@H](CO)[C@@H](O[C@@H]4O[C@H](CO)[C@H](O)[C@H](O)[C@H]4O)[C@H](O)[C@H]3O)[C@@H](O)[C@H](O)[C@H]2NC(C)=O)nn1)S(=O)(=O)c1ccc(-c2ccccc2)cc1` (stereo partly drawn) [compound 4, N-((2R,3R,4R,5 S,6R)-2-(3-(4-((N-(sec-butyl)-[1,1’-biphenyl]-4-sulfonamido)methyl)-1 H-1,2,3-triazol-1-yl)propoxy)-6-((((2R,3R,4R,5 S,6R)-3,4-dihydroxy-6-(hydroxymethyl)-5-(((2 S,3R,4 S,5R,6R)-3,4,5-trihydroxy-6-(hydroxymethyl)tetrahydro-2 H-pyran-2-yl)oxy)tetrahydro-2 H-pyran-2-yl)oxy)methyl)-4,5-dihydroxytetrahydro-2 H-pyran-3-yl)acetamide]: testing at 100 µM in data set [7] gave an inhibition of 64%.
